Experimental data: paper PMC6857076 (Pharmacology Research & Perspectives, 2019)
Read-outs that look alike come from different tables or passages of the source.

Legend:
[1] = unbound, Cav × fu
[2] = tested on: CRP; conditions: RA, cited from earlier work
[3] = pooled RA clinical studies, cited from earlier work
[4] = tested on: platelet counts; conditions: integrated analysis of phase 1b, 2, 3 and LTE RA studies, baricitinib 4 mg QD; cited from earlier work
[5] = integrated analysis of phase 1b, 2, 3 and LTE RA studies, baricitinib 4 mg QD; cited from earlier work
[6] = in vitro; conditions: both, human, pooled human plasma
[7] = human; baricitinib 4 mg QD; cited from earlier work
[8] = tested on: NK cell counts; conditions: RA, baricitinib 4 mg QD, cited from earlier work
[9] = target: recombinant human kinase domain of TYK2 (Homo sapiens, UniProt P29597); assay: Enzymatic microfluidic kinase assay, TYK2
Sequence of recombinant human kinase domain of TYK2 (P29597 897-1176 limits assumed): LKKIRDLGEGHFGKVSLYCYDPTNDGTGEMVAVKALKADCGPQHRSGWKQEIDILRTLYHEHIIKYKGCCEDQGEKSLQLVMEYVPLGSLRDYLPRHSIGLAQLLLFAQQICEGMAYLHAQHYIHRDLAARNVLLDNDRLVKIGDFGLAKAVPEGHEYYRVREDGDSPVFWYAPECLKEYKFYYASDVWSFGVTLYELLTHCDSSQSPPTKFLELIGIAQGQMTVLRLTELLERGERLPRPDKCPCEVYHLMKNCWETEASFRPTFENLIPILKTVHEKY

Row | Structure (SMILES) | Cav,u ([1]; tofacitinib 5 mg BID) [nM] | reduction of CRP levels from baseline to week 12 ([2]; tofacitinib 5 mg BID) [mg/L] | Cav,u ([1]; baricitinib 4 mg QD) [nM] | reduction of CRP levels from baseline to week 12 ([2]; baricitinib 4 mg QD) | herpes zoster incidence rate ([3]; baricitinib 2 mg QD) | herpes zoster incidence rate ([3]; baricitinib 4 mg QD) | platelet counts vs baseline [4] | hemoglobin levels vs baseline [5] | fraction unbound at 6 h, 1 μmol/L [6] | Cav [7] [nM] | change from baseline in NK cell counts ([8]; week 12) [cells/mm^3] | change from baseline in NK cell counts ([8]; week 24) [cells/mm^3] | IC50 [9] [nM]
1 | C[C@@H]1CCN(C(=O)CC#N)C[C@@H]1N(C)c1ncnc2[nH]ccc12 [Tofacitinib] | 41.0 | -10.1 | – | – | – | – | – | – | – | – | – | – | –
2 | CCS(=O)(=O)N1CC(CC#N)(n2cc(-c3ncnc4[nH]ccc34)cn2)C1 [Baricitinib] | – | – | 16.0 | approximately −10 mg/L | 2.7 events per 100 patient-years | 4.3 events per 100 patient-years | initial increase in platelet counts, which then returned toward baseline | decreased from baseline to week 20, then returned to baseline or higher | 0.59 | 27 | −57.0 | −53.4 | 14
